The experiment relates to STAT6. The experiment is described as follows: Inhibitory test on STAT6 activation: IL-4-induced alkali phosphatase STAT6 reporter in 293 cells stably expressing the STAT6 gene and STAT6 reporter gene. The following applies: HEK293, 1 ng/ml human recombinant IL-4, 16 hours, 293 cells with STAT6 reporter, read-out: Inhibitory activity IC50 (concentration at which the alkali phosphatase activity induced by IL-4 was inhibited by 50%). It is filed as cell-based. The gist of the method: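 HEK293 clone stably carrying STAT6 and a STAT6-element-driven alkaline phosphatase reporter, 5000 cells/well. Compound (DMSO ≤0.1%) plus 1 ng/ml human IL-4 for 16 hours. Supernatant heat-treated 65° C. 10 minutes, then alkaline phosphatase measured fluorometrically in carbonate buffer.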
In general terms: A reporter such as luciferase makes a cellular process visible.

From patent publication US7074801B1, “Nitrogen-containing condensed cyclic compound having a pyrazolyl group as a substituent group and pharmaceutical composition thereof” (Eisai Co., Ltd., priority 2001, dated 2006) come the findings set out here.

Counter-ions that a name gives are not always drawn. Like-named read-outs stand apart in the source and are kept apart here.

On to `Fc1cccc(F)c1-c1n[nH]cc1-c1ccc2ncn(-c3ccc(Cl)cn3)c2c1` [Example 727, 1-(5-Chloropyridin-2-yl)-6-[3-(2,6-difluorophenyl)-1H-4-pyrazolyl]-1H-benzo[d]imidazole trihydrochloride], for which the IC50 (Table 2) was < 10 nM. As for `Cc1n[nH]cc1-c1ccc2nccc(N3CCN(C(=O)Nc4ccccc4)CC3)c2c1` [Example 212, N-Phenyl-4-[6-(3-methyl-1H-4-pyrazolyl)-4-quinolyl]-1-piperazine carboxamide dihydrochloride], the IC50 (Table 1) is < 10 nM.

`NC(=O)c1ccc(-c2cnc3ccc(-c4c[nH]nc4-c4ccc(F)cc4)cn23)cc1` [Example 78, 4-{6-[3-(4-Fluorophenyl)-1H-4-pyrazolyl]imidazo[1,2-a]-pyridin-3-yl}benzamide dihydrochloride]: the IC50 (Table 1) is < 10 nM. As for `O=S(=O)(c1ccc(-c2ncnc3ccc(-c4c[nH]nc4-c4ccc(F)cc4)cc23)s1)C1CC1` [Example 902, 4-(5-Cyclopropanesulfonylthiophen-2-yl)-6-[3-(4-fluorophenyl)-1H-pyrazol-4-yl] quinazoline], the IC50 (Table 2) was < 10 nM. Consider `Fc1ccccc1-c1n[nH]cc1-c1ccc2ncc(-c3noc(C4CC4)n3)n2c1` [Example 583, 3-(5-Cyclopropyl-[1,2,4]oxadiazol-3-yl)-6-[3-(2-fluorophenyl)-1H-4-pyrazolyl]-imidazo[1,2-a]pyridine trihydrochloride], for which the IC50 (Table 1) was < 10 nM. Still for that read-out and setting: in the case of `Cc1n[nH]cc1-c1ccc2ncc(-c3ccc(C(=O)NN4CCCCC4)c(F)c3)n2c1` [Example 644, N1-Piperidino-2-fluoro-4-[6-(3-methyl-1H-4-pyrazolyl)-imidazo[1,2-a]pyridin-3-yl] benzamide dihydrochloride] it was < 10 nM; in that of `O=C(NC1(c2ccc(F)cc2F)CC1)c1ccc(-c2cnc3ccc(-c4cn[nH]c4)cn23)cc1F` [Example 661, N1-[1-(2,4-Difluorophenyl)cyclopropyl]-2-fluoro-4-[6-(1H-4-pyrazolyl)imidazo[1,2-a]pyridin-3-yl]benzamide hydrochloride], < 10 nM. As for `O=C(NC1CC1)c1ccc(-c2ncnc3ccc(-c4c[nH]nc4-c4ccc(F)cc4F)cc23)cc1F` [Example 873, N-Cyclopropyl-4-{6-[3-(2,4-difluorophenyl)-1H-pyrazol-4-yl]quinazolin-4-yl}-2-fluorobenzamide dihydrochloride], under “Table 2”, the IC50 fell in the range of 100 to 1000 nM.

As to `O=C(N1CCCC1)N1CCN(c2ccnc3ccc(-c4c[nH]nc4C(F)(F)F)cc23)CC1` [Example 224, Tetrahydro-1H-1-pyrrolyl{4-[6-(3-trifluoromethyl-1H-pyrazolyl)-4-quinolyl]piperazin-1-yl}methanone], the IC50 (Table 1) was < 10 nM. As for `O=C(NC1=NCCS1)c1ccc(-c2cnc3ccc(-c4cn[nH]c4)cn23)cc1F` [Example 712, N1-(4,5-Dihydro-1,3-thiazol-2-yl)-2-fluoro-4-[6-(1H-4-pyrazolyl)imidazo[1,2-a]pyridin-3-yl]benzamide dihydrochloride], the IC50 (Table 2) was < 10 nM. `N#Cc1ccc(-c2n[nH]cc2-c2ccc3ncn(-c4ccc(C#N)cn4)c3c2)cc1` [Example 148, 6-{6-[3-(4-Cyanophenyl)-1H-4-pyrazolyl]-1H-benzo[d]-imidazol-1-yl}nicotinonitrile trihydrochloride]: the IC50 (Table 1) is < 10 nM. The same measure, in the same setting: as for `N#Cc1ccc(-c2cnc3ccc(-c4c[nH]nc4-c4ccc(F)cc4)cn23)s1` [Example 71, 5-{6-[3-(4-Fluorophenyl)-1H-4-pyrazolyl]imidazo[1,2-a]-pyridin-3-yl}-2-thiophene carboxynitrile dihydrochloride], the figure is 10 to 100 nM.

As for `O=C(Nc1ccc(-c2cnc3ccc(-c4cn[nH]c4)cn23)cc1F)NC1CCCCC1` [Example 698, N-Cyclohexyl-N′-(2-fluoro-4-[6-(1H-4-pyrazolyl)imidazo[1,2-a]pyridin-3-yl]phenyl}urea hydrochloride], the IC50 (Table 1) lay within 10 to 100 nM. Same read-out and setting: in the case of `Cc1cnc(NC(=O)c2ccc(-c3cnc4ccc(-c5cn[nH]c5)cn34)nc2)s1` [Example 655, N3-(5-Methyl-1,3-thiazol-2-yl)-6-[6-(1H-4-pyrazolyl)-imidazo[1,2-a]pyridin-3-yl]nicotinic acid amide trihydrochloride] it was 10 to 100 nM.

As for `O=S(=O)(CCO)c1cccc(N2CCN(c3ncnc4ccc(-c5cn[nH]c5)cc34)CC2)c1` [Example 951, 2-(3-{4-[6-(1H-Pyrazol-4-yl)quinazolin-4-yl]piperazin-1-yl}benzenesulfonyl)ethanol tri-trifluoroacetate], under “Table 2”, the IC50 was 10 to 100 nM. Consider `Cc1n[nH]cc1-c1ccc2nccc(N3CCN(C(=O)N(C)CCN(C)C)CC3)c2c1` [Example 227, N-[2-(Dimethylamino)ethyl]-N-methyl-4-[6-(3-methyl-1H-4-pyrazolyl)-4-quinolyl]-1-piperazine carboxamide dihydrochloride], for which the IC50 (Table 1) fell in the range of 10 to 100 nM. In the case of `CNc1nnc(-c2cnc3ccc(-c4c[nH]nc4-c4ccc(F)cc4F)cn23)o1` [Example 561], the IC50 (Table 1) is < 10 nM. Turning to `O=S(=O)(c1cccc(N2CCN(c3ncnc4ccc(-c5cn[nH]c5)cc34)CC2)c1)N1CCCCC1` [Example 955, 4-{4-[3-(Piperidine-1-sulfonyl)phenyl]piperazin-1-yl}-6-(1H-pyrazol-4-yl)quinazoline tri-trifluoroacetate], the IC50 (Table 2) is < 10 nM. With `COC1CCN(c2ccnc3ccc(-c4c[nH]nc4C)cc23)CC1` [Example 230, 4-(4-Methoxypiperidino)-6-(3-methyl-1H-4-pyrazolyl)quinoline dihydrochloride], under “Table 1”, the IC50 is < 10 nM.

Consider `CS(=O)(=O)c1cc(F)cc(N2CCN(c3ncnc4ccc(-c5cn[nH]c5)cc34)CC2)c1` [Example 845, 4-[4-(3-Fluoro-5-methylsulfonylphenyl)piperazin-1-yl]-6-(1H-4-pyrazolyl)quinazoline dihydrochloride], for which, for the setting “Table 2”, the IC50 was < 10 nM. Consider `Cc1ccnc(NC(=O)c2ccc(-n3cnc4ccc(-c5cn[nH]c5)cc43)cc2F)c1` [Example 728, N1-(4-Methyl-2-pyridyl)-2-fluoro-4-[6-(1H-4-pyrazolyl)-1H-benzo[d]imidazol-1-yl]benzamide trihydrochloride], for which the IC50 (Table 2) is < 10 nM. Take `c1ccc(N2CCN(c3ncnc4ccc(-c5cn[nH]c5)cc34)CC2)nc1` [Example 936, 6-(1H-Pyrazol-4-yl)-4-(4-pyridin-2-yl-piperazin-1-yl)quinazoline tri-trifluoroacetate]: the IC50 (Table 2) is < 10 nM.

As for `O=C(Nc1nc2ccc(F)cc2s1)c1ccc(-c2cnc3ccc(-c4cn[nH]c4)cn23)cc1F` [Example 669, N1-(6-Fluoro-1,3-benzothiazol-2-yl)-2-fluoro-4-[6-(1H-4-pyrazolyl)imidazo[1,2-a]pyridin-3-yl]benzamide dihydrochloride], the IC50 (Table 1) was < 10 nM. On the same count and under the same terms, in the case of `CC(=O)NCCCOc1ccc(-c2cnc3ccc(-c4c[nH]nc4-c4ccc(F)cc4)cn23)cc1` [Example 87, N-[3-(4-{6-[3-(4-Fluorophenyl)-1H-4-pyrazolyl]imidazo-[1,2-a]pyridin-3-yl}phenoxy)propyl]acetamide] it was < 10 nM. Consider `Cn1cc(-c2ncnc3ccc(-c4c[nH]nc4-c4c(F)cccc4F)cc23)cn1` [Example 910, 6-[3-(2,6-Difluorophenyl)-1H-pyrazol-4-yl]-4-(1-methyl-1H-pyrazol-4-yl) quinazoline], for which the IC50 (Table 2) was < 10 nM.
